Biological target: T1, human TRPV4 (Homo sapiens, UniProt Q9HBA0)
T1 construct: host or cells: tetracycline-inducible Flp-In T-REx 293 cells
Assay: Hypotonicity-induced Ca2+ influx (Fluo-4, FDSS)
Assay type: cell-based
Procedure, shortened: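 Flp-In T-REx 293 cells with tetracycline-induced human TRPV4, loaded with Fluo-4 for 60 min at 25 °C. Compound added 5 min before hypotonic mannitol/CaCl2 solution. Ca2+ signal recorded for 4.5 min on FDSS.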

[1] = Flp-In T-REx 293 cells expressing human TRPV4, examples listed under heading 'Human IC50<50 nM'
[2] = Flp-In T-REx 293 cells stably expressing human TRPV4, compounds listed by potency bin (<10 nM Tables 96-1/96-2, <3 nM Table 97)

T1 sequence (Q9HBA0 whole entry): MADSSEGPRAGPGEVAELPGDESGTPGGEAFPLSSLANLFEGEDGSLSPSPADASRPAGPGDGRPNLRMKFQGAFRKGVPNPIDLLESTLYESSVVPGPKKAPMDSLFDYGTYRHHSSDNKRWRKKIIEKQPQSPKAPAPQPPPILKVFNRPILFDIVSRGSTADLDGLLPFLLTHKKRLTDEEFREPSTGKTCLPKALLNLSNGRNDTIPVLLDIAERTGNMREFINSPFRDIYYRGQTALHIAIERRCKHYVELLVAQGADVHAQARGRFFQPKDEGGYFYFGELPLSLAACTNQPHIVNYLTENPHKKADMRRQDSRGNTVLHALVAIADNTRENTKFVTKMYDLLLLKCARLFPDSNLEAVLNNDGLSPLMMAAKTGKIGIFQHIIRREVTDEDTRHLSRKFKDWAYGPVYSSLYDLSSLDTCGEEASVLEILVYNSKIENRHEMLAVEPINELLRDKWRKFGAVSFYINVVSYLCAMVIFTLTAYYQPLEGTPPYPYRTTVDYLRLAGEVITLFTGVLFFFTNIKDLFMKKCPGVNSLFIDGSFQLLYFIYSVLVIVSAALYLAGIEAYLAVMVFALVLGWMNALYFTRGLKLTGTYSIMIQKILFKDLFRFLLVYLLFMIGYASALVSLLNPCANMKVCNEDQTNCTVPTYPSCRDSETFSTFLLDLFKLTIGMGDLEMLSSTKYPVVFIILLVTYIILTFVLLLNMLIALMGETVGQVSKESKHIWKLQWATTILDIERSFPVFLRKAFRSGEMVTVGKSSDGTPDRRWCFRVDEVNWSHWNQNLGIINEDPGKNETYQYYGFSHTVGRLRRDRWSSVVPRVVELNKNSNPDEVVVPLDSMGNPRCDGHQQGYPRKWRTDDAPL

Row | IC50 [1] | IC50 [2] | SMILES
1 | < 50 nM | < 10 nM | O=C(Cc1cccc(-c2cccc(OC(F)(F)F)c2)c1)N1CCCc2nc(C3(c4cccc(Cl)c4)CC3)[nH]c(=O)c2C1 [57-8]
2 | < 50 nM | < 3 nM | O=C([C@H](O)c1cccc(-c2cc(F)cc(Cl)c2)c1)N1CCCc2nc(C3(c4cccc(Cl)c4)CC3)[nH]c(=O)c2C1 [50-18]
3 | < 50 nM | < 3 nM | O=C([C@H](O)c1cccc(-c2coc3ccccc23)c1)N1CCCc2nc(C3(c4ccccc4)CC3)[nH]c(=O)c2C1 [49-46]
4 | < 50 nM | < 3 nM | O=C([C@H](O)c1cccc(-c2ccc(Cl)cc2)c1)N1CCCc2nc(C3(c4cccc(Cl)c4)CC3)[nH]c(=O)c2C1 [50-5]
5 | < 50 nM |  | CC(C)c1cccc(-c2cccc([C@@H](O)C(=O)N3CCCc4c(nc(C5(c6ccccc6)CC5)[nH]c4=O)C3)c2)c1 [49-57]
6 | < 50 nM | < 10 nM | O=C([C@H](O)c1cccc(-c2cccc(OC(F)(F)F)c2)c1)N1CCCc2nc(C3(c4cccc(C5CCCCC5)c4)CC3)[nH]c(=O)c2C1 [52-4]
7 | < 50 nM | < 10 nM | CC(C)c1cncc(C2(c3nc4c(c(=O)[nH]3)CN(C(=O)[C@H](O)c3cccc(-c5cccc(C(F)(F)F)c5)c3)CCC4)CC2)c1 [55-5]
8 | < 50 nM | < 10 nM | O=C([C@H](O)c1cccc(-c2cccc(C(F)(F)F)c2)c1)N1CCCc2nc(C3(c4cc(-c5ccccc5)cs4)CC3)[nH]c(=O)c2C1 [54-14]
9 | < 50 nM | < 10 nM | CC(C)c1cccc(C2(c3nc4c(c(=O)[nH]3)CN(C(=O)[C@H](O)c3cccc(-c5cccc(C(F)(F)F)c5)c3)CCC4)CC2)c1 [51-2]
10 | < 50 nM | < 10 nM | O=C([C@H](O)c1cccc(-c2cccc(OC(F)(F)F)c2)c1)N1CCCc2nc(C3(c4cccc(-c5csc6ccccc56)c4)CC3)[nH]c(=O)c2C1 [52-10]
11 | < 50 nM | < 10 nM | O=C([C@H](O)c1cccc(-c2cccc(Cl)c2Cl)c1)N1CCCc2nc(C3(c4ccccc4)CC3)[nH]c(=O)c2C1 [49-42]
12 | < 50 nM | < 10 nM | O=C([C@H](O)c1cccc(-c2cccc(C3CC3)c2)c1)N1CCCc2nc(C3(c4cccc(Cl)c4)CC3)[nH]c(=O)c2C1 [50-10]
13 | < 50 nM | < 10 nM | O=C([C@H](O)c1cccc(-c2cccc(OC(F)(F)F)c2)c1)N1CCCc2nc(C3(c4cncc(-c5ccccc5)c4)CC3)[nH]c(=O)c2C1 [56-6]
14 | < 50 nM | < 10 nM | O=C(C(O)c1cccc(-c2cccc(C(F)(F)F)c2)c1)N1CCCc2nc(C3(c4ccccc4)CC3)[nH]c(=O)c2C1 (centres unmarked) [49-8]
15 | < 50 nM | < 10 nM | O=C([C@H](O)c1cccc(-c2cc(C(F)(F)F)cc(C(F)(F)F)c2)c1)N1CCCc2nc(C3(c4ccccc4)CC3)[nH]c(=O)c2C1 [49-32]

Further lines, the compound ahead of its results:

Row | SMILES | IC50 [1] | IC50 [2]
16 | O=C([C@H](O)c1cccc(C(F)(F)F)c1)N1CCCc2nc(C3(c4cccc(-c5cnc(N6CCCC6)nc5)c4)CC3)[nH]c(=O)c2C1 [42-3] | < 50 nM | < 3 nM
17 | O=C([C@H](O)c1cccc(C(F)(F)F)c1)N1CCCc2nc(C3(c4cccc(C(F)(F)F)c4)CC3)[nH]c(=O)c2C1 [17-3] | < 50 nM | < 3 nM
18 | O=C([C@H](O)c1cccc(C(F)(F)F)c1)N1CCCc2nc(C3(c4cccc(C5=CCN(S(=O)(=O)c6ccc(F)cc6)CC5)c4)CC3)[nH]c(=O)c2C1 [42-75] | < 50 nM | < 10 nM
19 | N#Cc1ccc(-c2cccc(C3(c4nc5c(c(=O)[nH]4)CN(C(=O)[C@H](O)c4cccc(C(F)(F)F)c4)CCC5)CC3)c2)cc1 [42-65] | < 50 nM | < 10 nM
20 | O=C([C@H](O)c1cccc(C(F)(F)F)c1)N1CCCc2nc(C3(c4cc(CCC5CCOCC5)cs4)CC3)[nH]c(=O)c2C1 [30-6] | < 50 nM | < 10 nM
21 | O=C(C(O)c1cccc(Cl)c1F)N1CCCc2nc(C3(c4cccc(Oc5ccccc5)c4)CC3)[nH]c(=O)c2C1 (centres unmarked) [17-81] | < 50 nM | < 10 nM
22 | O=C(Cc1cccc(SC(F)(F)F)c1)N1CCCc2nc(C3(c4ccccc4)CC3)[nH]c(=O)c2C1 [17-26] | < 50 nM | < 10 nM
23 | O=C(C(O)c1cccc(-c2ccc(Cl)c(C(F)(F)F)c2)c1)N1CCc2nc(C3(c4ccccc4)CC3)[nH]c(=O)c2C1 (centres unmarked) [44-5] | < 50 nM | < 10 nM
24 | O=C(Cc1cccc(C(F)(F)F)c1F)N1CCCc2nc(C3(c4cccc(Cl)c4)CC3)[nH]c(=O)c2C1 [17-111] | < 50 nM | < 10 nM
25 | O=C([C@H](O)c1cccc(C(F)(F)F)c1)N1CCCc2nc(C3(c4cccc(-c5csc6ccccc56)c4)CC3)[nH]c(=O)c2C1 [42-28] | < 50 nM | < 10 nM
26 | O=C(C(O)c1cccc(-c2cccc(C(F)(F)F)c2)c1)N1CCc2nc(C3(c4cccc(Cl)c4)CC3)[nH]c(=O)c2C1 (centres unmarked) [14-8] | < 50 nM | < 10 nM
27 | CC(C)c1cccc(C(O)C(=O)N2CCc3nc(C4(c5cccc(Cl)c5)CC4)[nH]c(=O)c3C2)c1 (centres unmarked) [14-16] | < 50 nM | 
28 | CC(C)c1cncc(C2(c3nc4c(c(=O)[nH]3)CN(C(=O)C(F)(F)c3cccc(C(F)(F)F)c3)CCC4)CC2)c1 [22-1] | < 50 nM | < 3 nM
29 | O=C([C@H](O)c1cccc(-c2cc(Cl)cc(C(F)(F)F)c2)c1)N1CCc2nc(C3(c4ccccc4)CC3)[nH]c(=O)c2C1 [44-99] | < 50 nM | < 10 nM
30 | CC(C)(C)CC(=O)N1CCN(c2ccc(-c3cccc(C4(c5nc6c(c(=O)[nH]5)CN(C(=O)[C@H](O)c5cccc(C(F)(F)F)c5)CCC6)CC4)c3)cn2)CC1 [42-85] | < 50 nM | < 10 nM
31 | O=C(C(O)c1cccc(-c2cnc3ccccc3c2)c1)N1CCc2nc(C3(c4cccc(Cl)c4)CC3)[nH]c(=O)c2C1 (centres unmarked) [14-3] | < 50 nM | < 10 nM
32 | CC(C)(C)c1cccc(C(O)C(=O)N2CCCc3nc(C4(c5cncc(-c6ccccc6)c5)CC4)[nH]c(=O)c3C2)c1 (centres unmarked) [19-5] | < 50 nM | < 10 nM
33 | O=C([C@H](O)c1cccc(Cl)c1)N1CCCc2nc(C3(c4cccc(-c5ccccc5)c4)CC3)[nH]c(=O)c2C1 [40-1] | < 50 nM | < 3 nM
34 | O=C(Cc1ccccc1)N1CCN(c2ccc(-c3cccc(C4(c5nc6c(c(=O)[nH]5)CN(C(=O)[C@H](O)c5cccc(C(F)(F)F)c5)CCC6)CC4)c3)cn2)CC1 [42-86] | < 50 nM | < 10 nM
35 | O=C(C(O)c1cccc(Oc2cccc(C(F)(F)F)c2)c1)N1CCc2nc(C3(c4ccccc4)CC3)[nH]c(=O)c2C1 (centres unmarked) [14-14] | < 50 nM | 
36 | O=C(C(O)c1cccc(-c2cccc(C(F)(F)F)c2)c1)N1CCc2nc(C3(c4cccc(F)c4)CC3)[nH]c(=O)c2C1 (centres unmarked) [14-6] | < 50 nM | < 10 nM

Row | SMILES | IC50 [1] | IC50 [2]
37 | O=C(Cc1ccccc1OCc1ccccc1)N1CCCc2nc(C3(c4ccccc4)CC3)[nH]c(=O)c2C1 [17-145] | < 50 nM | < 10 nM
38 | O=C(C(O)c1cccc(-c2ccc(Cl)cc2)c1)N1CCCc2nc(C3(c4cccs4)CC3)[nH]c(=O)c2C1 (centres unmarked) [18-5] | < 50 nM | < 10 nM
39 | O=C([C@H](O)c1cccc(-c2cccc(F)c2)c1)N1CCc2nc(C3(c4ccccc4)CC3)[nH]c(=O)c2C1 [44-70] | < 50 nM | 
40 | O=C([C@H](O)c1cccc(F)c1F)N1CCc2nc(C3(c4cccc(Cl)c4)CC3)[nH]c(=O)c2C1 [3-48] | < 50 nM | 
41 | O=C([C@H](O)c1cccc(-c2ccc(Cl)cc2)c1)N1CCc2nc(C3(c4ccccc4)CC3)[nH]c(=O)c2C1 [44-86] | < 50 nM | < 10 nM
42 | Cc1cccc(-c2cccc(C(O)C(=O)N3CCc4nc(C5(c6ccccc6)CC5)[nH]c(=O)c4C3)c2)c1 (centres unmarked) [44-51] | < 50 nM | 
43 | O=C(N1CCCc2nc(C3(c4cccc(Cl)c4)CC3)[nH]c(=O)c2C1)C(F)(F)c1cccc(C(F)(F)F)c1 [20-4] | < 50 nM | < 3 nM
44 | O=C(C(O)c1cccc(-c2ccc(F)cc2F)c1)N1CCc2nc(C3(c4ccccc4)CC3)[nH]c(=O)c2C1 (centres unmarked) [44-52] | < 50 nM | 
45 | CN(C)c1ccc(-c2cccc(C3(c4nc5c(c(=O)[nH]4)CN(C(=O)[C@H](O)c4cccc(C(F)(F)F)c4)CCC5)CC3)c2)cn1 [42-13] | < 50 nM | < 3 nM
46 | O=C([C@H](O)c1cccc(Cl)c1)N1CCc2nc(C3(c4cccc(-c5cccnc5)c4)CC3)[nH]c(=O)c2C1 [34-1] | < 50 nM | 
47 | O=C([C@H](O)c1cccc(C(F)(F)F)c1)N1CCCc2nc(C3(c4cccc(-c5ccccc5F)c4)CC3)[nH]c(=O)c2C1 [42-56] | < 50 nM | < 10 nM
48 | O=C(c1cccc(-c2cccc(C3(c4nc5c(c(=O)[nH]4)CN(C(=O)[C@H](O)c4cccc(C(F)(F)F)c4)CCC5)CC3)c2)c1)N1CCCCC1 [42-9] | < 50 nM | < 3 nM
49 | O=C([C@H](O)c1cccc(-c2cnc3ccccc3c2)c1)N1CCc2nc(C3(c4ccccc4)CC3)[nH]c(=O)c2C1 [44-81] | < 50 nM | < 3 nM
50 | O=C(C(O)c1cccc(Cl)c1F)N1CCCc2nc(C3(c4cccs4)CC3)[nH]c(=O)c2C1 (centres unmarked) [18-10] | < 50 nM | 
51 | N#Cc1ccc(-c2cccc(CC(=O)N3CCc4nc(C5(c6cccc(Cl)c6)CC5)[nH]c(=O)c4C3)c2)cc1 [14-115] | < 50 nM | 
52 | O=C(C(O)c1cccc(C(F)(F)F)c1F)N1CCCc2nc(C3(c4cccs4)CC3)[nH]c(=O)c2C1 (centres unmarked) [18-3] | < 50 nM | < 3 nM
53 | O=C(C(O)c1cccc(-c2cccc(F)c2)c1)N1CCc2nc(C3(c4ccccc4)CC3)[nH]c(=O)c2C1 (centres unmarked) [44-47] | < 50 nM | 
54 | O=C([C@H](O)c1cccc(Cl)c1)N1CCCc2nc(C3(c4cccc(-c5cnsc5)c4)CC3)[nH]c(=O)c2C1 [40-2] | < 50 nM | < 3 nM
55 | O=C([C@H](O)c1cccc(Br)c1)N1CCCc2nc(C3(c4cccc(-c5csc6ccccc56)c4)CC3)[nH]c(=O)c2C1 [17-124] | < 50 nM | < 10 nM
56 | O=C(C(O)c1cccc(Oc2cccc(C(F)(F)F)c2)c1)N1CCCc2nc(C3(c4cccc(Cl)c4)CC3)[nH]c(=O)c2C1 (centres unmarked) [17-40] | < 50 nM | < 10 nM
